Here are results for three compounds from patent US7932278B2, “2-aminoethoxyacetic acid derivatives and their use” (Bayer Schering Pharma Aktiengesellschaft, priority 2005, dated 2011).

Molecules are shown by their SMILES. Structures can show the parent of a compound that is named as a salt.

Chain of human factor Xa (FXa) (P00742 235-488 limits assumed): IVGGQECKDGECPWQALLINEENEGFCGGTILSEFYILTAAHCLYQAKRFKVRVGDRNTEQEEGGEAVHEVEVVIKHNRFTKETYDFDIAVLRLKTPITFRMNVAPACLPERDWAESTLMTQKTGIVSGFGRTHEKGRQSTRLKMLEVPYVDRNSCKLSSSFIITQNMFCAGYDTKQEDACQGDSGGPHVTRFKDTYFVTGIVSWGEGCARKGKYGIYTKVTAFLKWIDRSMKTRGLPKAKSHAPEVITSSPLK
Chain of human factor Xa (FXa) (P00742 41-179 partner limits assumed): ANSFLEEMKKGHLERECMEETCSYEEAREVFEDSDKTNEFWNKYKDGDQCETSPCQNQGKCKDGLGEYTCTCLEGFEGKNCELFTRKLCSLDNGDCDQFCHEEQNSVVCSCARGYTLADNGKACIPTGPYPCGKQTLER

For the assay, the target named is human factor Xa (FXa) (Homo sapiens, UniProt P00742). As to the kind of experiment: Determination of the factor Xa inhibition (chromogenic substrate). It is filed as biochemical. The settings on record: human FXa 0.5 nmol/l, 150 μmol/l Pefachrome FXa, 25° C., extinction at 405 nm. On the procedure:
a. 1) Determination of the Factor Xa Inhibition:
The enzymatic action of human factor Xa (FXa) is measured using the conversion of a chromogenic substrate specific for FXa. Factor Xa cleaves p-nitroaniline from the chromogenic substrate. The determinations are carried out in microtiter plates as follows:
The test substances, in various concentrations, are dissolved in DMSO and incubated for 10 minutes at 25° C. with human FXa (0.5 nmol/l dissolved in 50 mmol/l of tris buffer [C,C,C-tris(hydroxymethyl)aminomethane], 150 mmol/l of NaCl, 0.1% BSA [bovine serum albumin], pH=8.3). Pure DMSO is used as control. The chromogenic substrate (150 μmol/l Pefachrome® FXa from Pentapharm) is then added. After an incubation time of 20 minutes at 25° C., the extinction at 405 nm is determined.
With `O=C(O)COCCNc1ccc(N2C[C@H](CNC(=O)c3ccc(Cl)s3)OC2=O)cc1` [Example 1, 2-({4-[(5S)-5-({[(5-Chloro-2-thienyl)carbonyl]amino}methyl)-2-oxo-1,3-oxazolidin-3-yl]phenyl}-amino)ethoxy]acetic acid hydrochloride], the IC50 was 32 nM. That is a double-digit nanomolar value.
`O=C(O)COCCN(C(=O)c1ccc(Cl)s1)c1ccc(N2C[C@H](CNC(=O)c3ccc(Cl)s3)OC2=O)cc1` [Example 3, [2-([(5-Chloro-2-thienyl)carbonyl]{4-[(5S)-5-({[(5-chloro-2-thienyl)carbonyl]amino}methyl)-2-oxo-1,3-oxazolidin-3-yl]phenyl}amino)ethoxy]acetic acid] registered an IC50 of 66 nM.
The value for `CC(C)CNC(=O)N(CCOCC(=O)O)c1ccc(N2C[C@H](CNC(=O)c3ccc(Cl)s3)OC2=O)cc1` [Example 4, {2-[{4-[(5S)-5-({[(5-Chloro-2-thienyl)carbonyl]amino}methyl)-2-oxo-1,3-oxazolidin-3-yl]phenyl}-(isobutylcarbamoyl)amino]ethoxy}acetic acid] was 59 nM.

What is called IC50 is the point on the concentration scale where inhibition reaches its midpoint. A higher IC50 goes with weaker potency in that assay.
